Source: patent US10508109B2 (priority 2015, dated 2019)
Counter-ions that a name gives are not always drawn. Like-named read-outs stand apart in the source and are kept apart here.

Columns and labels:
A549 = experiment: Cell-based assay, anti-proliferative activity (Cell Counting Kit-8, 72 hours); settings: Homo sapiens, read-out: A549 IC50
Outline: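 Seed cells in 96-well format; add inhibitors; measure growth by CCK-8 at end of exposure; derive IC50.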

SUV39H2 = SUV39H2 (Homo sapiens (Human), UniProt Q9H5I1); experiment: biochemical; assay type: biochemical; settings: 3H-SAM 100 nM, H3 Histone Peptide 350 nM, room temperature 3 hours
Sequence of SUV39H2 (Q9H5I1 whole entry): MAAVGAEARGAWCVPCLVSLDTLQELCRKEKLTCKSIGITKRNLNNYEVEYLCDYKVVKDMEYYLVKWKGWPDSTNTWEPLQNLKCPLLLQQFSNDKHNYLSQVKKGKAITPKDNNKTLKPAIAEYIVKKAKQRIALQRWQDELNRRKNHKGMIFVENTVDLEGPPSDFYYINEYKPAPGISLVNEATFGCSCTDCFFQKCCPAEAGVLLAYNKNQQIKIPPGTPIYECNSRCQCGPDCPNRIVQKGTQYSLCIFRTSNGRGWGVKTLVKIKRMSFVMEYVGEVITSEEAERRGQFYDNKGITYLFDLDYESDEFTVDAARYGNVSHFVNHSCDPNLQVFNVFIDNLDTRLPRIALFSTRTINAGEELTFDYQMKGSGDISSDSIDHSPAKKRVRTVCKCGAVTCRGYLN
Outline: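 Scintillation proximity format: reactions were halted with streptavidin SPA beads (50 μg/well final) after 3 h at room temperature with enzyme dosed by lot-specific activity.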

[1] = A549 cells, 72 hours exposure, Cell Counting Kit-8

| SMILES | IC50 (A549; [1]) | IC50 (SUV39H2) | IC50 (A549; A549, 72 h) |
| --- | --- | --- | --- |
| COc1cc(OC)c(-c2cn3ccc(N4CCC[C@H](NCC5CCCCC5)C4)cc3n2)cc1Cl [Example 455, (S)-1-(2-(5-chloro-2,4-dimethoxyphenyl)imidazo[1,2-a]pyridin-7-yl)-N-(cyclohexylmethyl)piperidin-3-amine] | 920 nM | 12.3 nM | – |
| COc1cc(OC)c(-c2cn3ccc(N[C@H]4CC[C@H](Nc5nccc(N6CCOCC6)n5)CC4)cc3n2)cc1Cl [Example 406, (1r,4r)-N^1-(2-(5-chloro-2,4-dimethoxyphenyl)imidazo[1,2-a]pyridin-7-yl)-N^4-(4-morpholinopyrimidin-2-yl)cyclohexane-1,4-diamine] | 740 nM | 37 nM | – |
| COc1cc(OC)c(-c2cn3ccc(N[C@H]4CC[C@@H](NCc5cccc(C#N)c5)CC4)cc3n2)cc1Cl [Example 371, 3-(((cis-4-((2-(5-chloro-2,4-dimethoxyphenyl)imidazo[1,2-a]pyridin-7-yl)amino)cyclohexyl)amino)methyl)benzonitrile] | 690 nM | 16.1 nM | – |
| COc1cc(OC)c(-c2cn3ccc(N4CCN(c5cc(N6CCCCC6)ncn5)CC4)cc3n2)cc1Cl [Example 353, 2-(5-chloro-2,4-dimethoxyphenyl)-7-(4-(6-(piperidin-1-yl)pyrimidin-4-yl)piperazin-1-yl)imidazo[1,2-a]pyridine] | 780 nM | 41.9 nM | – |
| COc1cc(OC)c(-c2cn3ccc(N4CCN(c5nccc(N6CCN(C)CC6)n5)CC4)cc3n2)cc1Cl [Example 370, 2-(5-chloro-2,4-dimethoxyphenyl)-7-(4-(4-(4-methylpiperazin-1-yl)pyrimidin-2-yl)piperazin-1-yl)imidazo[1,2-a]pyridine] | – | 12 nM | 730 nM |
| COc1cc(OC)c(-c2cn3ccc(N4CCN(c5ncc([N+](=O)[O-])cc5C#N)CC4)cc3n2)cc1Cl [Example 349, 2-(4-(2-(5-chloro-2,4-dimethoxyphenyl)imidazo[1,2-a]pyridin-7-yl)piperazin-1-yl)-5-nitronicotinonitrile] | 610 nM | 14.9 nM | – |
| COc1cc(OC)c(-c2cn3ccc(N4CCN(c5ncc(N)cn5)CC4)cc3n2)cc1Cl [Example 422, 2-(4-(2-(5-chloro-2,4-dimethoxyphenyl)imidazo[1,2-a]pyridin-7-yl)piperazin-1-yl)pyrimidin-5-amine hydrochloride] | – | 11.2 nM | 720 nM |
| COc1cc(OC)c(-c2cn3ccc(N4CCN(c5ncc(N6CCOCC6)cn5)CC4)cc3n2)cc1Cl [Example 427, 4-(2-(4-(2-(5-chloro-2,4-dimethoxyphenyl)imidazo[1,2-a]pyridin-7-yl)piperazin-1-yl)pyrimidin-5-yl)morpholine] | 820 nM | 25.1 nM | – |
| COc1cc(OC)c(-c2cn3ccc(NC4CCN(Cc5ccc([N+](=O)[O-])o5)CC4)cc3n2)cc1Cl [Example 343, 2-(5-chloro-2,4-dimethoxyphenyl)-N-(1-((5-nitrofuran-2-yl)methyl)piperidin-4-yl)imidazo[1,2-a]pyridin-7-amine] | 910 nM | 47.9 nM | – |
| COc1cc(OC)c(-c2cn3ccc(N[C@H]4CC[C@@H](NCc5ccc(N(C)C)cc5)CC4)cc3n2)cc1Cl [Example 418, cis-N^1-(2-(5-chloro-2,4-dimethoxyphenyl)imidazo[1,2-a]pyridin-7-yl)-N^4-(4-(dimethylamino)benzyl)cyclohexane-1,4-diamine bis(2,2,2-trifluoroacetate)] | 610 nM | 41.3 nM | – |
| COc1cc(OC)c(-c2cn3ccc(N[C@H]4C[C@H]5CC[C@@H](C4)N5CC4CCN(C(=O)OC(C)(C)C)CC4)cc3n2)cc1Cl [Example 447, tert-butyl 4-(((1R,3r,5S)-3-((2-(5-chloro-2,4-dimethoxyphenyl)imidazo[1,2-a]pyridin-7-yl)amino)-8-azabicyclo[3.2.1]octan-8-yl)methyl)piperidine-1-carboxylate] | 440 nM | 85.2 nM | – |
| COc1cc(OC)c(-c2cn3ccc(N4CCN(c5ccnc(N6CCN(C)CC6)n5)CC4)cc3n2)cc1Cl [Example 351, 2-(5-chloro-2,4-dimethoxyphenyl)-7-(4-(2-(4-methylpiperazin-1-yl)pyrimidin-4-yl)piperazin-1-yl)imidazo[1,2-a]pyridine] | 860 nM | 28.6 nM | – |
| COc1cc(OC)c(-c2cn3ccc(N4CCN(c5nccc(N6CCC(=O)CC6)n5)CC4)cc3n2)cc1Cl [Example 366, 1-(2-(4-(2-(5-chloro-2,4-dimethoxyphenyl)imidazo[1,2-a]pyridin-7-yl)piperazin-1-yl)pyrimidin-4-yl)piperidin-4-one] | 860 nM | 62.9 nM | – |
| COc1cc(OC)c(-c2cn3ccc(N4CCN(c5nccc(N(C)C)n5)CC4)cc3n2)cc1Cl [Example 356, 2-(4-(2-(5-chloro-2,4-dimethoxyphenyl)imidazo[1,2-a]pyridin-7-yl)piperazin-1-yl)-N,N-dimethylpyrimidin-4-amine] | 380 nM | 60.6 nM | – |
| COc1cc(OC)c(-c2cn3ccc(N4CCN(c5cc(N(C)C)nc(N)n5)CC4)cc3n2)cc1Cl [Example 389, 6-(4-(2-(5-chloro-2,4-dimethoxyphenyl)imidazo[1,2-a]pyridin-7-yl)piperazin-1-yl)-N^4,N^4-dimethylpyrimidine-2,4-diamine dihydrochloride] | – | 39.3 nM | 750 nM |
| COc1cc(OC)c(-c2cn3ccc(N4CCN(c5nccc(N6CCC(N)CC6)n5)CC4)cc3n2)cc1Cl [Example 437, 1-(2-(4-(2-(5-chloro-2,4-dimethoxyphenyl)imidazo[1,2-a]pyridin-7-yl)piperazin-1-yl)pyrimidin-4-yl)piperidin-4-amine] | 740 nM | 15.9 nM | – |
| COc1cc(OC)c(-c2cn3ccc(N4CC[C@H](NC(C)C5CCN(C(=O)OC(C)(C)C)CC5)C4)cc3n2)cc1Cl (stereo partly drawn) [Example 425, tert-butyl 4-(1-(((S)-1-(2-(5-chloro-2,4-dimethoxyphenyl)imidazo[1,2-a]pyridine-7-yl)pyrrolidin-3-yl)amino)ethyl)piperidine-1-carboxylate] | 890 nM | 57.9 nM | – |
| COc1cc(OC)c(-c2cn3ccc(N4CCN(c5cc(N6CCCC6)ncn5)CC4)cc3n2)cc1Cl [Example 355, 2-(5-chloro-2,4-dimethoxyphenyl)-7-(4-(6-(pyrrolidin-1-yl)pyrimidin-4-yl)piperazin-1-yl)imidazo[1,2-a]pyridine] | 670 nM | 38.8 nM | – |
| COc1cc(OC)c(-c2cn3ccc(N4CCN(c5nc(N)nc(Cl)n5)CC4)cc3n2)cc1Cl [Example 361, 4-chloro-6-(4-(2-(5-chloro-2,4-dimethoxyphenyl)imidazo[1,2-a]pyridin-7-yl)piperazin-1-yl)-1,3,5-triazin-2-amine] | 870 nM | 43.3 nM | – |
| CNC1CCN(c2cc(N3CCN(c4ccn5cc(-c6cc(Cl)c(OC)cc6OC)nc5c4)CC3)ncn2)C1 (stereo not shown) [Example 424, 1-(6-(4-(2-(5-chloro-2,4-dimethoxyphenyl)imidazo[1,2-a]pyridin-7-yl)piperazin-1-yl)pyrimidin-4-yl)-N-methylpyrrolidin-3-amine] | 700 nM | 11.4 nM | – |
| COc1cc(OC)c(-c2cn3ccc(N4CCN(c5ccnc(N6CCC(N)C6)n5)CC4)cc3n2)cc1Cl (stereo not shown) [Example 354, 1-(4-(4-(2-(5-chloro-2,4-dimethoxyphenyl)imidazo[1,2-a]pyridin-7-yl)piperazin-1-yl)pyrimidin-2-yl)pyrrolidin-3-amine] | 490 nM | 12.9 nM | – |
| CNC1CCN(c2nccc(N3CCN(c4ccn5cc(-c6cc(Cl)c(OC)cc6OC)nc5c4)CC3)n2)C1 (stereo not shown) [Example 372, 1-(4-(4-(2-(5-chloro-2,4-dimethoxyphenyl)imidazo[1,2-a]pyridine-7-yl)piperazin-1-yl)pyrimidin-2-yl)-N-methylpyrrolidin-3-amine trihydrochloride] | – | 18.3 nM | 700 nM |
| COc1cc(OC)c(-c2cn3ccc(N4CCN(c5ccc(N)nc5)CC4)cc3n2)cc1Cl [Example 323, 5-(4-(2-(5-chloro-2,4-dimethoxyphenyl)imidazo[1,2-a]pyridin-7-yl)piperazin-1-yl)pyridin-2-amine] | 930 nM | 30.4 nM | – |
| COc1cc(OC)c(-c2cn3ccc(N4CCN(c5ncnc(N6CCOCC6)n5)CC4)cc3n2)cc1Cl [Example 449, 4-(4-(4-(2-(5-chloro-2,4-dimethoxyphenyl)imidazo[1,2-a]pyridin-7-yl)piperazin-1-yl)-1,3,5-triazin-2-yl)morpholine] | – | 17.5 nM | 870 nM |
| COc1cc(OC)c(-c2cn3ccc(N4CCN(/N=C\c5ccncc5)CC4)cc3n2)cc1Cl [Example 410, (Z)-4-(2-(5-chloro-2,4-dimethoxyphenyl)imidazo[1,2-a]pyridin-7-yl)-N-(pyridin-4-ylmethylene)piperazin-1-amine] | 780 nM | 8.29 nM | – |
| COc1cc(OC)c(-c2cn3ccc(N4CCN(c5ccnc(C#N)c5)CC4)cc3n2)cc1Cl [Example 330, 4-(4-(2-(5-chloro-2,4-dimethoxyphenyl)imidazo[1,2-a]pyridin-7-yl)piperazin-1-yl)picolinonitrile] | 560 nM | 98 nM | – |
